According to article PMC11642981, “Bioguided Identification of Polymethoxyflavones as Novel Vascular CaV1.2 Channel Blockers from Citrus Peel” (Molecules, 2024):
Where two headings read alike, the source gives them in different places.

What was measured:
Assay type in all cases: cell-based
[1] = target: T1, CaV1.2 channel (α1C subunit) (Rattus norvegicus, UniProt P22002); experiment: whole-cell patch-clamp, complete block of IBa1.[…] at […]
T1 construct: gene Cacna1c; native channel in freshly isolated rat tail artery myocytes
T1 sequence (P22002 whole entry): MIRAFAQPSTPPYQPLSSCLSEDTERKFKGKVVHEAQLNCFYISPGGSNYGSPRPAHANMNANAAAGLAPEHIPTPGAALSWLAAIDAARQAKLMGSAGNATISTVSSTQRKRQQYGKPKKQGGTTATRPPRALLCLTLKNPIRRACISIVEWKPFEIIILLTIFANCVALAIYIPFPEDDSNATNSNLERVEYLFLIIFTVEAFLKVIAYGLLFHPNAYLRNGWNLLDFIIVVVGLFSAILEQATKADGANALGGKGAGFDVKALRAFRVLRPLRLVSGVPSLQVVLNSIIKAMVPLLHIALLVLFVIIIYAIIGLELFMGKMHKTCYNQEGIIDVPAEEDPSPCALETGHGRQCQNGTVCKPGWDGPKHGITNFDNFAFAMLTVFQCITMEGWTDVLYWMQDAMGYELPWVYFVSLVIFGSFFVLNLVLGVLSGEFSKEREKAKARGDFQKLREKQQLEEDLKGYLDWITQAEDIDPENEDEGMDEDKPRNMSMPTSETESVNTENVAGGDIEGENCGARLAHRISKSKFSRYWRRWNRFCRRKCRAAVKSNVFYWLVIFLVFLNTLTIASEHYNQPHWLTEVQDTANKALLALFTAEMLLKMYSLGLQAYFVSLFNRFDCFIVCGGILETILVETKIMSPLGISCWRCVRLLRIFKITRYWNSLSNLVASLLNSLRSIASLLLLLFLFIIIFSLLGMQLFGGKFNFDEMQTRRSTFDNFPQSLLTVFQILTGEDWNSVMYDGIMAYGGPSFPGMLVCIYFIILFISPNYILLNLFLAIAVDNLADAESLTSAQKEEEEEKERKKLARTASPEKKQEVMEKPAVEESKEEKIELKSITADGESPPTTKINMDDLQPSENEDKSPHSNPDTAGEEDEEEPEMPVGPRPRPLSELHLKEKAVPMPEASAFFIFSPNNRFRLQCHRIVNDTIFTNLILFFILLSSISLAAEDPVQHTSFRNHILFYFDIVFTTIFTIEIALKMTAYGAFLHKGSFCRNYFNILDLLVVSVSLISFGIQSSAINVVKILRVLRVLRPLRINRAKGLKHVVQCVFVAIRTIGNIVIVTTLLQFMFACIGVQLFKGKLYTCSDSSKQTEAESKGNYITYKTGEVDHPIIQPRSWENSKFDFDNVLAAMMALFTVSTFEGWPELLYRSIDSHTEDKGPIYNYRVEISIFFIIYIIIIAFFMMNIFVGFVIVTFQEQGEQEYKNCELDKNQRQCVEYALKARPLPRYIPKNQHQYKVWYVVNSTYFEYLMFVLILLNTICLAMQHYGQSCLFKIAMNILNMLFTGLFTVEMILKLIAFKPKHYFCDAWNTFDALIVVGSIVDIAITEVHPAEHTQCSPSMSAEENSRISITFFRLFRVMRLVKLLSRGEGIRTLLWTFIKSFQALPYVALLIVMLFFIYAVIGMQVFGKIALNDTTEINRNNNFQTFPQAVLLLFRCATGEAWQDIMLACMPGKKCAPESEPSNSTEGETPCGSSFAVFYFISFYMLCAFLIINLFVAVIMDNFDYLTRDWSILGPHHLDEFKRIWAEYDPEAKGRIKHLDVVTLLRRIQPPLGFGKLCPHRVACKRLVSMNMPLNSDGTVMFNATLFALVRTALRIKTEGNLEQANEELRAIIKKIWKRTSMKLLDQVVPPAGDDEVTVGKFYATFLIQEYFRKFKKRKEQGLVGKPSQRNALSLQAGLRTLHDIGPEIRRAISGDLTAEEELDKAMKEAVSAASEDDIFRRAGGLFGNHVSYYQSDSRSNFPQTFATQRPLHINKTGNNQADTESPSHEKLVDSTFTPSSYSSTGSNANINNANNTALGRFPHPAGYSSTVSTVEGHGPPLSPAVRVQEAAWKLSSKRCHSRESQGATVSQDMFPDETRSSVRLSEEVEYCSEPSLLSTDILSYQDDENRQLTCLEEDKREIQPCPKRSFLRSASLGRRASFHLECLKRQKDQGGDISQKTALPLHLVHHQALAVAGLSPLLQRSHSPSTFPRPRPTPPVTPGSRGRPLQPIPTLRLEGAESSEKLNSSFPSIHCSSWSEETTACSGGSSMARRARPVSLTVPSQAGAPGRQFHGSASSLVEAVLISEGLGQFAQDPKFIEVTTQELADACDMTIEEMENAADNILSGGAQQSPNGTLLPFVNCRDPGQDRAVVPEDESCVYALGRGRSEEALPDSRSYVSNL

[2] = target: T1, CaV1.2 channel (α1C subunit); experiment: whole-cell patch-clamp, Ba2+ current (IBa1.[…]); settings: read-out: % reduction in current amplitude at 100 μM
[3] = target: T1, CaV1.2 channel (α1C subunit); experiment: whole-cell patch-clamp, Ba2+ current (IBa1.[…])

SMILES: COC(=O)C1=C(C)NC(C)=C(C(=O)OC)C1c1ccccc1[N+](=O)[O-] [nifedipine]
- whole-cell patch-clamp, complete block of IBa1.2 at 10 μM [1]: 10 µM (completely blocked IBa1.2)

SMILES: COc1ccc(-c2cc(=O)c3c(OC)c(OC)c(OC)c(OC)c3o2)cc1OC [nobiletin]
- inhibition at 100 µM [2]: 50%

SMILES: COc1ccc(-c2cc(=O)c3c(OC)c(OC)c(OC)cc3o2)cc1 [scutellarein tetramethyl ether]
- IC50 [3]: ~33.1 µM

SMILES: COc1ccc(-c2cc(=O)c3c(OC)c(OC)c(OC)cc3o2)cc1OC [sinensetin]
- inhibition at 100 µM [2]: 50%

SMILES: COc1ccc(-c2cc(=O)c3c(OC)c(OC)c(OC)c(OC)c3o2)cc1 [tangeretin]
- IC50 ([3]; read-out: IC50 (converted)): ~66.1 µM
